Experimental data taken from patent publication US20240279220A1, “INDOLE COMPOUNDS AND METHODS OF USE” (Genzyme Corporation, priority 2021, published 2024).

System: NBD1/3D
Test: Aggregation analysis using differential static light scattering (DSLS), NBD1 thermal stability
Type: binding, Human
Settings: ΔTagg versus DMSO control; compound at 100 μM
Method in brief: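 Purified NBD1 at 0.2 mg/ml in S200 buffer (pH 7.6, 2 mM ATP, 5 mM MgCl2, 1% glycerol) was heated with compound at 1 °C/min to 70 °C. Tagg taken from the light-scattering curve inflection point; ΔTagg = compound Tagg minus mean DMSO control Tagg.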

Compound | DSLS NBD1/3D Human Stability delta-T (° C.) @ 100 (μM)
C[C@@H](O)C(=O)N1Cc2ccc(C(C)(O)c3cnc(-c4cccc(Oc5c(F)cc6[nH]ccc6c5F)c4)[nH]3)cc2C1 (stereo partly drawn) [Example 219, (2R)-1-(5-(1-(2-(3-((4,6-Difluoro-1H-indol-5-yl)oxy)phenyl)-1H-imidazol-5-yl)-1-hydroxyethyl)isoindolin-2-yl)-2-hydroxypropan-1-one] | C (C: ≤5° C.)
O=C(O)CCc1cccc(Cn2ccc(-c3cccc(Oc4ccc5[nH]ccc5c4CO)c3)n2)c1 [Example 10, 3-(3-((3-(3-((4-(Hydroxymethyl)-1H-indol-5-yl)oxy)phenyl)-1H-pyrazol-1-yl)methyl)phenyl)propanoic acid] | B (B: 5-10° C.)
O=C(O)CCc1cccc(C2(c3cnc(-c4cc(Oc5nc6cc[nH]c6cc5F)ccc4F)[nH]3)CC(F)(F)C2)c1 [Example 165, 3-(3-(3,3-difluoro-1-(2-(2-fluoro-5-((6-fluoro-1H-pyrrolo[3,2-b]pyridin-5-yl)oxy)phenyl)-1H-imidazol-5-yl)cyclobutyl)phenyl)propanoic acid] | B (B: 5-10° C.)
CC(c1cnc(-c2cc(Oc3c(F)cc4[nH]ccc4c3F)ccc2F)[nH]1)c1cccc(CC(=O)O)c1F (single isomer, unassigned) [Example 131B, 2-(3-(1-(2-(5-((4,6-difluoro-1H-indol-5-yl)oxy)-2-fluorophenyl)-1H-imidazol-5-yl)ethyl)-2-fluorophenyl)acetic acid] | B (B: 5-10° C.)
CC(O)(c1cc(F)cc(CCC(=O)O)c1)c1c[nH]c(-c2cc(Oc3c(F)cc4[nH]ccc4c3F)ccc2F)n1 (stereo not shown) [Example 220, 3-(3-(1-(2-(5-((4,6-Difluoro-1H-indol-5-yl)oxy)-2-fluorophenyl)-1H-imidazol-4-yl)-1-hydroxyethyl)-5-fluorophenyl)propanoic acid] | B (B: 5-10° C.)
CC(O)(c1cccc(CCC(=O)O)c1)c1cnc(-c2cc(Oc3cc(F)c4[nH]ccc4c3F)ccc2F)[nH]1 (stereo not shown) [Example 197, 3-(3-(1-(2-(5-((4,7-difluoro-1H-indol-5-yl)oxy)-2-fluorophenyl)-1H-imidazol-5-yl)-1-hydroxyethyl)phenyl) propanoic acid] | B (B: 5-10° C.)
Cc1c(Oc2cccc(-c3ccn(Cc4cccc(CCC(=O)O)c4)n3)c2)ccc2[nH]ccc12 [Example 1, 3-(3-((3-(3-((4-Methyl-1H-indol-5-yl)oxy)phenyl)-1H-pyrazol-1-yl)methyl)phenyl)propanoic acid] | B (B: 5-10° C.)
O=C(O)CCc1cccc(Cc2cnc(-c3cccc(Oc4c(F)cc5[nH]ccc5c4-c4ccn[nH]4)c3)[nH]2)c1 [Example 271, 3-(3-((2-(3-((6-Fluoro-4-(1H-pyrazol-5-yl)-1H-indol-5-yl)oxy)phenyl)-1H-imidazol-4-yl)methyl)phenyl)propanoic acid] | B (B: 5-10° C.)
CC(c1coc(-c2cc(Oc3c(F)cc4[nH]ccc4c3S(C)(=O)=O)ccc2F)n1)c1cccc(CCC(=O)O)c1F (single isomer, unassigned) [Example 43B, 3-(2-fluoro-3-(1-(2-(2-fluoro-5-((6-fluoro-4-(methylsulfonyl)-1H-indol-5-yl)oxy)phenyl)oxazol-4-yl)ethyl)phenyl)propanoic acid] | C (C: ≤5° C.)
COCCOC(c1cccc(CCC(=O)O)c1)c1cnc(-c2cc(Oc3c(F)cc4[nH]ccc4c3C)ccc2F)[nH]1 (stereo not shown) [Example 236, 3-(3-((2-(2-fluoro-5-((6-fluoro-4-methyl-1H-indol-5-yl)oxy)phenyl)-1H-imidazol-5-yl)(2-methoxyethoxy)methyl)phenyl) propanoic acid] | B (B: 5-10° C.)
CC(O)(c1cccc(/C=C2\SC(=O)NC2=O)c1)c1cnc(-c2cccc(Oc3c(F)cc4[nH]ccc4c3F)c2)[nH]1 (stereo not shown) [Example 210, (Z)-5-(3-(1-(2-(3-((4,6-Difluoro-1H-indol-5-yl)oxy)phenyl)-1H-imidazol-5-yl)-1-hydroxyethyl)benzylidene)thiazolidine-2,4-dione] | B (B: 5-10° C.)
CS(=O)(=O)c1c(Oc2ccc(F)c(-c3ncc(C4(c5cccc(CCC(=O)O)c5)CCC4)[nH]3)c2)c(F)cc2[nH]ccc12 [Example 46, 3-(3-(1-(2-(2-fluoro-5-((6-fluoro-4-(methylsulfonyl)-1H-indol-5-yl)oxy)phenyl)-1H-imidazol-5-yl)cyclobutyl)phenyl)propanoic acid] | A (A: T ≥ 10° C.)
Cc1c(Oc2ccc(F)c(-c3ncc(C4(c5cccc(CCC(=O)O)c5)CCCC4)[nH]3)c2)c(F)cc2[nH]ccc12 [Example 146, 3-(3-(1-(2-(2-fluoro-5-((6-fluoro-4-methyl-1H-indol-5-yl)oxy)phenyl)-1H-imidazol-5-yl)cyclopentyl)phenyl)propanoic acid] | B (B: 5-10° C.)
N#Cc1c(CCC(=O)O)cccc1Cc1cnc(-c2cc(Oc3c(F)cc4[nH]ccc4c3F)ccc2F)[nH]1 [Example 122, 3-(2-cyano-3-((2-(5-((4,6-difluoro-1H-indol-5-yl)oxy)-2-fluorophenyl)-1H-imidazol-5-yl)methyl)phenyl)propanoic acid] | B (B: 5-10° C.)
CS(=O)(=O)c1c(Oc2ccc(F)c(-c3nc(C4(c5cccc(CCC(=O)O)c5)CCCC4)c[nH]3)c2)c(F)cc2[nH]ccc12 [Example 47, 3-(3-(1-(2-(2-fluoro-5-((6-fluoro-4-(methylsulfonyl)-1H-indol-5-yl)oxy)phenyl)-1H-imidazol-5-yl)cyclopentyl)phenyl)propanoic acid] | A (A: T ≥ 10° C.)
Cc1c(Oc2ccc(F)c(-c3ncc(C(C)c4cccc([C@H]5CC5C(=O)O)c4F)[nH]3)c2)c(F)cc2[nH]ccc12 (single isomer, unassigned) [Example 139H, trans-2-(2-fluoro-3-(1-(2-(2-fluoro-5-((6-fluoro-4-methyl-1H-indol-5-yl)oxy)phenyl)-1H-imidazol-5-yl)ethyl)phenyl)cyclopropane-1-carboxylic acid] | C (C: ≤5° C.)
Cc1c(Oc2ccc(F)c(-c3nnc(Cc4ccc5[nH]c(C(=O)O)cc5c4)[nH]3)c2)c(F)cc2[nH]ccc12 [Example 246, 5-((5-(2-fluoro-5-((6-fluoro-4-methyl-1H-indol-5-yl)oxy)phenyl)-4H-1,2,4-triazol-3-yl)methyl)-1H-indole-2-carboxylic acid] | B (B: 5-10° C.)
CC(O)(c1cccc(CCC(=O)O)c1)c1cnc(-c2cccc(Oc3c(F)cc4[nH]ccc4c3S(=O)(=O)CC(F)F)c2)[nH]1 (stereo not shown) [Example 28, 3-(3-(1-(2-(3-((4-((2,2-difluoroethyl)sulfonyl)-6-fluoro-1H-indol-5-yl)oxy)phenyl)-1H-imidazol-5-yl)-1-hydroxyethyl)phenyl)propanoic acid] | A (A: T ≥ 10° C.)
Cc1c(Oc2ccc(F)c(-c3ncc(C4(c5cccc(CCC(=O)O)c5)CCOC(C)C4)[nH]3)c2)c(F)cc2[nH]ccc12 (single isomer, unassigned) [Example 151, 3-(3-(4-(2-(2-fluoro-5-((6-fluoro-4-methyl-1H-indol-5-yl)oxy)phenyl)-1H-imidazol-5-yl)-2-methyltetrahydro-2H-pyran-4-yl)phenyl)propanoic acid] | B (B: 5-10° C.)
Cc1c(Oc2ccc(F)c(-c3nc(Cc4cccc(CCC(=O)O)c4)n(C)n3)c2)c(F)cc2[nH]ccc12 [Example 241, 3-(3-((3-(2-Fluoro-5-((6-fluoro-4-methyl-1H-indol-5-yl)oxy)phenyl)-1-methyl-1H-1,2,4-triazol-5-yl)methyl)phenyl)propanoic acid] | B (B: 5-10° C.)
CO[C@]1(C)C[C@@](c2cc(F)cc(CCC(=O)O)c2)(c2c[nH]c(-c3cc(Oc4c(F)cc5[nH]ccc5c4S(C)(=O)=O)ccc3F)n2)C1 [Example 72, 3-(3-Fluoro-5-((1r,3r)-1-(2-(2-fluoro-5-((6-fluoro-4-(methylsulfonyl)-1H-indol-5-yl)oxy)phenyl)-1H-imidazol-5-yl)-3-methoxy-3-methylcyclobutyl)phenyl)propanoic acid] | A (A: T ≥ 10° C.)
O=C(O)Cc1cccc(Cn2ccc(-c3cccc(Oc4ccc5[nH]ccc5c4CO)c3)n2)c1 [Example 11, 2-(3-((3-(3-((4-(Hydroxymethyl)-1H-indol-5-yl)oxy)phenyl)-1H-pyrazol-1-yl)methyl)phenyl)acetic acid] | B (B: 5-10° C.)
c1cc(CCCCc2nnn[nH]2)cc(Cc2nnc(-c3cccc(Oc4ccc5[nH]ccc5c4)c3)[nH]2)c1 [Example 260, 5-(3-(5-(3-(4-(1H-Tetrazol-5-yl)butyl)benzyl)-4H-1,2,4-triazol-3-yl)phenoxy)-1H-indole] | C (C: ≤5° C.)
O=C(O)CCc1cccc(C(O)c2cnc(-c3cccc(Oc4c(F)cc5[nH]ccc5c4-c4ccn[nH]4)c3)[nH]2)c1 (stereo not shown) [Example 267, 3-(3-((2-(3-((6-Fluoro-4-(1H-pyrazol-5-yl)-1H-indol-5-yl)oxy)phenyl)-1H-imidazol-5-yl)(hydroxy)methyl)phenyl)propanoic acid] | B (B: 5-10° C.)
CC(C)OCCOCCC(c1cnc(-c2cc(Oc3c(F)cc4[nH]ccc4c3F)ccc2F)[nH]1)c1cccc(CCC(=O)O)c1F (single isomer, unassigned) [Example 130A, 3-(3-(1-(2-(5-((4,6-difluoro-1H-indol-5-yl)oxy)-2-fluorophenyl)-1H-imidazol-5-yl)-3-(2-isopropoxyethoxy)propyl)-2-fluorophenyl)propanoic acid] | C (C: ≤5° C.)
